Data from article PMC10714399, “Open Source Antibiotics: Simple Diarylimidazoles Are Potent against Methicillin-Resistant Staphylococcus aureus” (ACS Infectious Diseases, 2023).
Values joined by “and” are separate entries in the source; they are usually repeats but may differ in a detail not shown here. Identical values can stand only once.

Test system: S. aureus ATCC 25923 (methicillin-susceptible)
Test: In vitro antibacterial activity, MIC (UCL), MSSA
Assay type: cell-based, Staphylococcus aureus
Conditions: not given
Method: (§1) Staphylococcus aureus NCTC 13373 (mecA-positive; methicillin-resistant, NCTC 13373) was supplied by the National Collection of Type Cultures (NCTC), Public Health England, United Kingdom. Other organisms, S. aureus ATCC 25923 (methicillin-susceptible) and Enterococcus faecalis ATCC 51299 (vanA-positive; vancomycin-resistant), were obtained from the American Type Culture Collection (ATCC) via LGC Standards, UK. A suspension of each organism was prepared from an overnight plate culture (tryptone soya agar) in phosphate-buffered saline (PBS) and adjusted to an absorbance reading at 600 nm of 0.1, which is approximately equivalent to 1 × 10^8 colony-forming units (CFU) per mL. The cultures were further diluted 1:100 in isosensitest broth (Oxoid, United Kingdom) before 100 μL was used to inoculate each well of a 96-well plate that contained diluted samples of the OSA series. Compounds were evaluated over a 2-fold dilution range from 32 to 0.03 μg/mL. Stocks of the samples were prepared in 100% DMSO at […] before being diluted in isosenstitest broth. The highest concentration of DMSO present was 2%, which has been previously shown not to inhibit the growth of the microorganisms (data not shown). […] Vancomycin was used as a quality control compound.

| Compound | MSSA MIC |
| --- | --- |
| CS(=O)(=O)c1ccc2nc(-c3ccccn3)c(Nc3ccc(F)cc3)n2c1 [compound 1020] | > 32 µg/mL |
| Cc1ccc2nc(-c3ccccc3)cn2c1 [compound 1026] | > 32 µg/mL |
| Cc1ccc2nc(-c3ccccc3)c(CNc3ccc(F)cc3)n2c1 [compound 1027] | > 32 µg/mL |
| Cc1ccc2nc(-c3ccccc3)c(CNc3cccc(C(F)(F)F)c3)n2c1 [compound 1028] | > 32 µg/mL |
| CCCCN(Cc1c(-c2ccccc2)nc2ccc(C)cn12)c1cccc(C(F)(F)F)c1 [compound 1029] | 8 µg/mL |
| Cc1ccn2cc(-c3ccccn3)nc2c1 [compound 1030] | > 32 µg/mL |
| Cc1ccn2c(CN(CC(C)C)c3cccc(C(F)(F)F)c3)c(-c3ccccn3)nc2c1 [compound 1033] | > 32 µg/mL |
| c1ccc(-c2nc3n(c2-c2ccncc2)CCC3)nc1 [compound 1072] | > 32 µg/mL |

More lines, now with the values ahead:

| MSSA MIC | Compound |
| --- | --- |
| > 32 µg/mL | Fc1ccc(-c2c(-c3ccccn3)nc3n2CCC3)cc1 [compound 1053] |
| > 32 µg/mL | Fc1cc(-c2c(-c3ccccn3)nc3n2CCC3)ccn1 [compound 1073] |
| > 32 µg/mL | Nc1ccc(-c2c(-c3ccccn3)nc3n2CCC3)cc1 [compound 1074] |
| > 32 µg/mL | N#Cc1ccc(-c2c(-c3ccccn3)nc3n2CCC3)cn1 [compound 1075] |
| > 32 µg/mL | COc1cc(-c2c(-c3ccccn3)nc3n2CCC3)ccc1C#N [compound 1076] |
| > 32 µg/mL | N#Cc1ccc(-c2c(-c3ccccn3)nc3n2CCC3)cc1C(F)(F)F [compound 1077] |

Same assay, conditions: Staphylococcus aureus; UCL assay; read-out: MSSA MIC (ug/mL) (UCL)

| MIC | Compound |
| --- | --- |
| > 32 µg/mL | Fc1ccc(NCc2c(-c3ccccn3)nc3ccccn23)cc1 [OSA_001019] |
| > 32 µg/mL | Cc1ccc2nc(-c3ccccc3)cn2c1 [OSA_001026] |
| > 32 µg/mL | Cc1ccc2nc(-c3ccccc3)c(CNc3ccc(F)cc3)n2c1 [OSA_001027] |

Test system: Staphylococcus aureus NCTC 13373 (mecA-positive; methicillin-resistant)
Test: In vitro antibacterial activity, MIC (UCL School of Pharmacy assay), MRSA
Assay type: cell-based
Conditions: not given
Method: as §1

| Compound | MRSA MIC |
| --- | --- |
| CS(=O)(=O)c1ccc2nc(-c3ccccn3)c(Nc3ccc(F)cc3)n2c1 [compound 1020] | > 32 µg/mL and 32 µg/mL |
| Cc1ccc2nc(-c3ccccc3)cn2c1 [compound 1026] | > 32 µg/mL and 32 µg/mL |
| Cc1ccc2nc(-c3ccccc3)c(CNc3ccc(F)cc3)n2c1 [compound 1027] | > 32 µg/mL and 32 µg/mL |
| Cc1ccc2nc(-c3ccccc3)c(CNc3cccc(C(F)(F)F)c3)n2c1 [compound 1028] | > 32 µg/mL and 32 µg/mL |
| CCCCN(Cc1c(-c2ccccc2)nc2ccc(C)cn12)c1cccc(C(F)(F)F)c1 [compound 1029] | 8 µg/mL |
| Cc1ccn2cc(-c3ccccn3)nc2c1 [compound 1030] | > 32 µg/mL and 32 µg/mL |
| Cc1ccn2c(CN(CC(C)C)c3cccc(C(F)(F)F)c3)c(-c3ccccn3)nc2c1 [compound 1033] | > 32 µg/mL and 32 µg/mL |
| c1ccc(-c2nc3n(c2-c2ccncc2)CCC3)nc1 [compound 1072] | > 32 µg/mL and 32 µg/mL |

Continued, values first:

| MRSA MIC | Compound |
| --- | --- |
| > 32 µg/mL and 32 µg/mL | Fc1ccc(-c2c(-c3ccccn3)nc3n2CCC3)cc1 [compound 1053] |
| > 32 µg/mL and 32 µg/mL | Fc1cc(-c2c(-c3ccccn3)nc3n2CCC3)ccn1 [compound 1073] |
| > 32 µg/mL and 32 µg/mL | Nc1ccc(-c2c(-c3ccccn3)nc3n2CCC3)cc1 [compound 1074] |
| > 32 µg/mL and 32 µg/mL | N#Cc1ccc(-c2c(-c3ccccn3)nc3n2CCC3)cn1 [compound 1075] |
| > 32 µg/mL and 32 µg/mL | COc1cc(-c2c(-c3ccccn3)nc3n2CCC3)ccc1C#N [compound 1076] |
| > 32 µg/mL and 32 µg/mL | N#Cc1ccc(-c2c(-c3ccccn3)nc3n2CCC3)cc1C(F)(F)F [compound 1077] |

Same assay, conditions: Staphylococcus aureus; UCL assay; read-out: MRSA MIC (ug/mL) (UCL)

| MIC | Compound |
| --- | --- |
| > 32 µg/mL | Fc1ccc(NCc2c(-c3ccccn3)nc3ccccn23)cc1 [OSA_001019] |
| > 32 µg/mL | Cc1ccc2nc(-c3ccccc3)cn2c1 [OSA_001026] |
| > 32 µg/mL | Cc1ccc2nc(-c3ccccc3)c(CNc3ccc(F)cc3)n2c1 [OSA_001027] |

Test system: MRC-5SV2 (human lung fibroblast cell line)
Test: Toxicity against MRC-5SV2
Assay type: cell-based
Conditions: not given
Method: (§2) ADME and toxicity for compounds were measured according to procedures outlined in the manuscript submitted in parallel to this one;2 other procedures were used for those compounds analysed by Monash University (in vitro ADME) or UCL (toxicity), both described in the main

| Compound | MRC5 TC50 |
| --- | --- |
| CS(=O)(=O)c1ccc2nc(-c3ccccn3)c(Nc3ccc(F)cc3)n2c1 [compound 1020] | 24.5 µg/mL |
| Cc1ccc2nc(-c3ccccc3)cn2c1 [compound 1026] | 13.3 µg/mL |
| Cc1ccc2nc(-c3ccccc3)c(CNc3ccc(F)cc3)n2c1 [compound 1027] | 21.2 µg/mL |
| Cc1ccc2nc(-c3ccccc3)c(CNc3cccc(C(F)(F)F)c3)n2c1 [compound 1028] | 24.4 µg/mL |
| CCCCN(Cc1c(-c2ccccc2)nc2ccc(C)cn12)c1cccc(C(F)(F)F)c1 [compound 1029] | 0.5 µg/mL |
| Cc1ccn2cc(-c3ccccn3)nc2c1 [compound 1030] | 4.6 µg/mL |
| Cc1ccn2c(CN(CC(C)C)c3cccc(C(F)(F)F)c3)c(-c3ccccn3)nc2c1 [compound 1033] | 4.3 µg/mL |
| Fc1ccc(-c2c(-c3ccccn3)nc3n2CCC3)cc1 [compound 1053] | 2.1 µg/mL |
| c1ccc(-c2nc3n(c2-c2ccncc2)CCC3)nc1 [compound 1072] | 16.8 µg/mL |
| Fc1cc(-c2c(-c3ccccn3)nc3n2CCC3)ccn1 [compound 1073] | 8.6 µg/mL |
| Nc1ccc(-c2c(-c3ccccn3)nc3n2CCC3)cc1 [compound 1074] | 1.6 µg/mL |
| N#Cc1ccc(-c2c(-c3ccccn3)nc3n2CCC3)cn1 [compound 1075] | 18.4 µg/mL |
| COc1cc(-c2c(-c3ccccn3)nc3n2CCC3)ccc1C#N [compound 1076] | 8.8 µg/mL |
| N#Cc1ccc(-c2c(-c3ccccn3)nc3n2CCC3)cc1C(F)(F)F [compound 1077] | 22.7 µg/mL |

Same assay, conditions: MRC5 cells

| Compound | MRC5 TC50 |
| --- | --- |
| Fc1ccc(NCc2c(-c3ccccn3)nc3ccccn23)cc1 [OSA_001019] | 64 µM |
| Cc1ccc2nc(-c3ccccc3)cn2c1 [OSA_001026] | 64 µM |
| Cc1ccc2nc(-c3ccccc3)c(CNc3ccc(F)cc3)n2c1 [OSA_001027] | 64 µM |

Test system: PMM (primary mouse macrophages)
Test: Toxicity against PMM
Assay type: cell-based
Conditions: not given
Method: as §2

| Compound | PMM TC50 |
| --- | --- |
| CS(=O)(=O)c1ccc2nc(-c3ccccn3)c(Nc3ccc(F)cc3)n2c1 [compound 1020] | 12.2 µg/mL |
| Cc1ccc2nc(-c3ccccc3)cn2c1 [compound 1026] | 13.3 µg/mL |
| Cc1ccc2nc(-c3ccccc3)c(CNc3ccc(F)cc3)n2c1 [compound 1027] | 21.2 µg/mL |
| Cc1ccc2nc(-c3ccccc3)c(CNc3cccc(C(F)(F)F)c3)n2c1 [compound 1028] | 24.4 µg/mL |
| CCCCN(Cc1c(-c2ccccc2)nc2ccc(C)cn12)c1cccc(C(F)(F)F)c1 [compound 1029] | 3.5 µg/mL |
| Cc1ccn2cc(-c3ccccn3)nc2c1 [compound 1030] | 13.4 µg/mL |
| Cc1ccn2c(CN(CC(C)C)c3cccc(C(F)(F)F)c3)c(-c3ccccn3)nc2c1 [compound 1033] | 14.0 µg/mL |
| Fc1ccc(-c2c(-c3ccccn3)nc3n2CCC3)cc1 [compound 1053] | 8.9 µg/mL |
| c1ccc(-c2nc3n(c2-c2ccncc2)CCC3)nc1 [compound 1072] | 16.8 µg/mL |
| Fc1cc(-c2c(-c3ccccn3)nc3n2CCC3)ccn1 [compound 1073] | 9.0 µg/mL |
| Nc1ccc(-c2c(-c3ccccn3)nc3n2CCC3)cc1 [compound 1074] | 2.2 µg/mL |
| N#Cc1ccc(-c2c(-c3ccccn3)nc3n2CCC3)cn1 [compound 1075] | 18.4 µg/mL |
| COc1cc(-c2c(-c3ccccn3)nc3n2CCC3)ccc1C#N [compound 1076] | 20.2 µg/mL |
| N#Cc1ccc(-c2c(-c3ccccn3)nc3n2CCC3)cc1C(F)(F)F [compound 1077] | 22.7 µg/mL |

Same assay, conditions: PMM

| Compound | PMM TC50 |
| --- | --- |
| Fc1ccc(NCc2c(-c3ccccn3)nc3ccccn23)cc1 [OSA_001019] | 64 µM |
| Cc1ccc2nc(-c3ccccc3)cn2c1 [OSA_001026] | 64 µM |
| Cc1ccc2nc(-c3ccccc3)c(CNc3ccc(F)cc3)n2c1 [OSA_001027] | 64 µM |
